From US7041785B1, “B1-bradykinin receptor antagonists and use thereof” (Université de Sherbrooke, priority 1996, dated 2006)
Non-standard residues stand in square brackets, D forms with d. Residues, ends and D or L forms follow the SMILES beside them. No end group written: not given here. d2Nal = N[C@H](Cc1ccc2ccccc2c1)C(=O)O

Tests used:
[1] = target: T1, B1 receptor (Oryctolagus cuniculus, UniProt P48748); assay: cell-based; details: for Rb.A. α^E: residual agonistic activity at 10 μg/mL in comparison with desArg9BK
T1 sequence (P48748 1-352): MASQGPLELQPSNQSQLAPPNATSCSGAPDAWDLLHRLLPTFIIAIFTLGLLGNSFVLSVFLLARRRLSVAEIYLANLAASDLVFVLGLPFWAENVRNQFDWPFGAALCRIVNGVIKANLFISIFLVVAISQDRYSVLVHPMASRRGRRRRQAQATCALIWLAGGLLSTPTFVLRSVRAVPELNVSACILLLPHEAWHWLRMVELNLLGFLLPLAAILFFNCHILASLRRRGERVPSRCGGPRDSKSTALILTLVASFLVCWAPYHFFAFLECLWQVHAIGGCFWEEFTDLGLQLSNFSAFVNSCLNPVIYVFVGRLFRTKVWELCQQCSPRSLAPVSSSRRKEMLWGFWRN
Text: (§1) Tissues were taken from New Zealand white rabbits (1.5–2.5 kg) and Dunken Hartley guinea pigs (250–350 g) of either sex, killed by stunning and exsanguination. Umbilical cords were taken from healthy women 22–40 years old after spontaneous delivery at term. The rabbit jugular vein (RbJV), the guinea pig ileum (GPI), two preparations containing B2 receptors, the rabbit aorta (RbA) (B1 receptor) and the human umbilical vein (HUV), a mixed preparation containing both B1 and B2 receptors^10, were used. Helical strips of RbJV treated with 1 μmol/L of captopril to avoid peptide degradation by the angiotensin-converting enzyme (ACE), alias kininase II were prepared according to Gaudreau et al.^11 Helical strips of RbA devoid of endothelium were prepared according to Furchgott and Bhadrakom^12. Longitudinal segments of GPI were prepared with the procedure described by Rang^13. Helical strips of HUV were prepared according to Gobeil et al.^10. The tissues were suspended in 10-ml organ baths containing warm (37EC), oxygenated (95% O2–5% CO2) Krebs solution of the following composition in mmol/L; NaCl: 118.1; KCl: 4.7; CaCl26H2O: 2.5; KH2PO4: 1.2; MgSO47H2O: 1.18; NaHCO3: 25.0 and D-Glucose: 5.5. The RbA and the HUV were stretched with an initial tension of 2 g, whereas the RbJV and the GPI were loaded with 0.5 g. Changes of tension produced by the various agents were measured with Grass isometric transducers (model FT 03C, Grass Instrument Co., Quincy, Mass.). […] Before testing the drugs, the tissues were allowed to equilibrate for 60–120 min during which time the tissues were repeatedly washed and the tension readjusted every 15 min.
(§2) At the beginning of each experiment, a submaximal dose of bradykinin (BK) (9 nmol/L), was applied repeatedly on the RbJV, the GPI or the HUV to ensure that tissues responded with stable contractions. […] A similar protocol was used for the HUV.
(§3) Repeated applications of a singl and double concentration of BK (on RbJV, GPI and HUV) and of desArg^9BK (RbA and HUV) were made in the absence and in presence of the various peptides to evaluate their apparent affinities as antagonists, in terms of pA2 (-log10 of the molar concentration of antagonist that reduces the effect of a double concentration of agonist to that of a single one)^14. The antagonists were applied 10 min before measuring the myotropic effects of either BK (the B2 receptor agonist) or desArg^9BK (the B1 receptor agonist). […] All kinin antagonists were initially applied to tissues at concentration of 10 μg/mL to measure their potential agonistic activities (α^E) in comparison with BK (in the B2 receptor preparations) or desArg^9BK (in the B1 receptor preparations).

[2] = target: T2, B2 receptor (Cavia porcellus, UniProt O70526); assay: cell-based
T2 sequence (O70526 1-372): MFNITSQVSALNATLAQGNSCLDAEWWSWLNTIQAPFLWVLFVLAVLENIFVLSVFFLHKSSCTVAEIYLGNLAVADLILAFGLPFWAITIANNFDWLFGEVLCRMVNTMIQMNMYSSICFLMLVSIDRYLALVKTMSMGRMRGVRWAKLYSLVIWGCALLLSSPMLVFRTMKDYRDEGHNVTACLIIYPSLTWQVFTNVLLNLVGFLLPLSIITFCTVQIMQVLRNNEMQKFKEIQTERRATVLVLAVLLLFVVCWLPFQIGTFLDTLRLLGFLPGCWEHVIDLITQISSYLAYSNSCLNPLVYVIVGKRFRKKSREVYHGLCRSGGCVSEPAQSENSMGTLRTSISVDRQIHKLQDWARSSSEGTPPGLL
Text: as §1, §2, §3

[3] = target: T3, B2 receptor (Oryctolagus cuniculus, UniProt Q28642); assay: cell-based; details: residual agonistic activity at 10 μg/mL in comparison with BK
T3 sequence (Q28642 1-367): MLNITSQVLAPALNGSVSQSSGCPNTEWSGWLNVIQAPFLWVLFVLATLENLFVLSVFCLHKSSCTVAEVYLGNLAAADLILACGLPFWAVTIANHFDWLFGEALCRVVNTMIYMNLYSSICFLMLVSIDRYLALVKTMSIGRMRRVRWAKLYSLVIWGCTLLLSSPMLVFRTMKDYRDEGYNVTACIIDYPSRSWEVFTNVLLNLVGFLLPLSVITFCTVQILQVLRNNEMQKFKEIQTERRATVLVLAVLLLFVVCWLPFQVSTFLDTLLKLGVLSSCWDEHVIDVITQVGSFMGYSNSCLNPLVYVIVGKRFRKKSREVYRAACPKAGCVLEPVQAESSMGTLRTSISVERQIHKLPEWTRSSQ
Text: as §1, §2, §3

[4] = target: T4, human B1 receptor (Homo sapiens, UniProt P46663); assay: cell-based; details: for Human umbilical vein B1 receptor α^E: residual agonistic activity at 10 μg/mL
T4 sequence (P46663 1-353): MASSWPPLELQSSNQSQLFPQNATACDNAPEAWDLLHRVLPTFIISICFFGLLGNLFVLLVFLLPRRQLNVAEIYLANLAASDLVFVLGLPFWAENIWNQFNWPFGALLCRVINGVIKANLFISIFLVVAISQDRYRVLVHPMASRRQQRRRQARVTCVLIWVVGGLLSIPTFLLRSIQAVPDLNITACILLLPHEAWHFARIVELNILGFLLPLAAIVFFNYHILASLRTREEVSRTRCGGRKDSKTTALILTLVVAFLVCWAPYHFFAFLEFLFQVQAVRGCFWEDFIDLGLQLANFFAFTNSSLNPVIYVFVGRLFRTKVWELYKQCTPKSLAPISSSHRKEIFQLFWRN
Text: as §1, §2, §3

[5] = target: T5, human B2 receptor (Homo sapiens, UniProt P30411); assay: Human umbilical vein bioassay in presence of Lys(Leu8)desArg9BK, B2 receptor; format: cell-based; details: vs BK, Lys(Leu8)desArg9BK 1 μmol/L present
T5 construct: Helical strips of HUV were prepared according to Gobeil et al; from tissue; host or cells: human umbilical vein helical strips
T5 sequence (P30411 1-391): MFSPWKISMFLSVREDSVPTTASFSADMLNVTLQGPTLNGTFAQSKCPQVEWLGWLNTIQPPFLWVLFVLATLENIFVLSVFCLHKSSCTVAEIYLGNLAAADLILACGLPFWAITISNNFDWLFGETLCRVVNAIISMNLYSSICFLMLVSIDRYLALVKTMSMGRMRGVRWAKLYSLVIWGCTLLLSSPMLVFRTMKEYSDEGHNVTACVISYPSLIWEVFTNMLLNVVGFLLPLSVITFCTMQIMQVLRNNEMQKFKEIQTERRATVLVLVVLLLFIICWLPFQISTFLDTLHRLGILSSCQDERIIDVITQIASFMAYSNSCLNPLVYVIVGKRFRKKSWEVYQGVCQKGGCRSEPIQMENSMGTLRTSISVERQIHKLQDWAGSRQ
Text: as §1, §2, §3

[6] = target: T3, B2 receptor; details: vs BK; captopril 1 μmol/L; Inactive = no detectable antagonistic effect at ≦ 10 μg/ml
[7] = target: T6, angiotensin-converting enzyme (ACE) from rabbit lungs (Oryctolagus cuniculus, UniProt P12822); details: after 30 min, same conditions and enzymatic dilution; cited from earlier work
T6 sequence (P12822 34-1310): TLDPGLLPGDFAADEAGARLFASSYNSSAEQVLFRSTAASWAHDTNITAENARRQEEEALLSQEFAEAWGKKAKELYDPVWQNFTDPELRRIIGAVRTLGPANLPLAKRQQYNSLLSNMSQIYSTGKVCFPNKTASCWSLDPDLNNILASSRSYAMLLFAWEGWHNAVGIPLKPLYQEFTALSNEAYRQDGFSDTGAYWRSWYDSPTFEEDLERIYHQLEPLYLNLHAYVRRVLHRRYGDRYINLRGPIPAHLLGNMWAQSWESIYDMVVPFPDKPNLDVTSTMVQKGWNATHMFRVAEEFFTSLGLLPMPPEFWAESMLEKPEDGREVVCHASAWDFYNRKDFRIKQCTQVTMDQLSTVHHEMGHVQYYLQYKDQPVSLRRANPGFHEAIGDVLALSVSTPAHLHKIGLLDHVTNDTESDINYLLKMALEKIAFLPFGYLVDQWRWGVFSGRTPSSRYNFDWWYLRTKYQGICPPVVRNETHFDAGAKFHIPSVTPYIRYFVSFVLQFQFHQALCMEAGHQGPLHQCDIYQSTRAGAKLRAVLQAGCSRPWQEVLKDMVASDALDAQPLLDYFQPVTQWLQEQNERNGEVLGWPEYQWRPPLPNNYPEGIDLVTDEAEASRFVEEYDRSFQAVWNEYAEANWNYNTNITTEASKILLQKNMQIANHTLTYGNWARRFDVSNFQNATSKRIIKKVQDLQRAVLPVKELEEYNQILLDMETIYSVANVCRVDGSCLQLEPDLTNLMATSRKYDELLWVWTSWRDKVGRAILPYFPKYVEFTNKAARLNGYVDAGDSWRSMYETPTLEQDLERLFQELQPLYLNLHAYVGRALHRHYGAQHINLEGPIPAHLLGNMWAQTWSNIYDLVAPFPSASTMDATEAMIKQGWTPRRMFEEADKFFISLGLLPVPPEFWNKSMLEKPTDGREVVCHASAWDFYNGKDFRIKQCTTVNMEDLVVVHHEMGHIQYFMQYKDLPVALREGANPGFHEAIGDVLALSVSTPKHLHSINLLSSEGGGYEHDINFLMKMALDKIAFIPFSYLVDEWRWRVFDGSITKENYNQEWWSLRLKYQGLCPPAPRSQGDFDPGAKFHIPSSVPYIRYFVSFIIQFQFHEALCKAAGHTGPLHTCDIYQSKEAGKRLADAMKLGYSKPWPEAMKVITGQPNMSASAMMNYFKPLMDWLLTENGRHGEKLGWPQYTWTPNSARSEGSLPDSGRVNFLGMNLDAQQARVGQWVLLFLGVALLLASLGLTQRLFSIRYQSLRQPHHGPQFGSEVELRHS

CC[C@H](C)[C@H](NC(=O)[C@@H](Cc1ccc2ccccc2c1)NC(=O)[C@H](CO)NC(=O)[C@H](Cc1ccccc1)NC(=O)CNC(=O)[C@@H]1CCCN1C(=O)[C@@H]1CCCN1C(=O)[C@H](CCCNC(=N)N)NC(=O)[C@H](CCCCN)NC(C)=O)C(=O)O [Compound 19, AcLys(D-βNal^7, Ile^8)desArg^9BK] (Ac-KRPPGFS[d2Nal]I-OH; C-terminus assumed)
Rb.A. α^E [1]: 0
G.P.I. pA2 ([2]; vs BK, Inactive = no detectable antagonistic effect at ≦ 10 μg/ml, F.ag. full agonist, P.ag. partial agonist): P.ag.
Rb.J.V. α^E [3]: 0.09
Human umbilical vein B1 receptor α^E [4]: 0
Human umbilical vein B2 receptor pA2 [5]: Inactive
Rb.J.V. pA2 [6]: Inactive

D-Arg(Hyp^3, D-Hyp^7(trans thiophenyl), Oic^8)desArg^9BK [Compound 34, reference compound]
Rb.A. pA2 ([1]; apparent affinity as antagonist vs desArg9BK, antagonist applied 10 min before, Inactive = no detectable antagonistic effect at ≦ 10 μg/ml): 8.27 ± 0.14
Rb.A. α^E [1]: 0
G.P.I. α^E ([2]; residual agonistic activity at 10 μg/mL in comparison with BK): 0
Rb.J.V. α^E [3]: 0
Human umbilical vein B1 receptor α^E [4]: 0
Human umbilical vein B1 receptor pA2 ([4]; vs desArg9BK, HOE140 400 nmol/L present): 8.55 ± 0.09
Human umbilical vein B2 receptor pA2 [5]: 5.12 ± 0.20
Rb.J.V. pA2 [6]: 7.52 ± 0.05

RPPGFSPFR [BK]
Metabolism of naturally-occurring kinins by ACE [7]: fully metabolised
